# Key:
# [1] = biological target: Cruzipain (Trypanosoma cruzi) (UniProt P25779); test: Second order rate constant for inactivation of cruzain of Trypanosoma cruzi
# Trypanosoma cruzi [2] = test: Effect on survival time of against […] macrophages infected with Trypanosoma cruzi trypomastigotes at a concentration of 10 uM; format: functional
# Trypanosoma cruzi [3] = test: Effect on survival time of against […] macrophages infected with Trypanosoma cruzi trypomastigotes at a concentration of 30 uM; format: functional, organism-based
# Cruzipain (Trypanosoma cruzi), sequence (P25779 123-467 limits assumed): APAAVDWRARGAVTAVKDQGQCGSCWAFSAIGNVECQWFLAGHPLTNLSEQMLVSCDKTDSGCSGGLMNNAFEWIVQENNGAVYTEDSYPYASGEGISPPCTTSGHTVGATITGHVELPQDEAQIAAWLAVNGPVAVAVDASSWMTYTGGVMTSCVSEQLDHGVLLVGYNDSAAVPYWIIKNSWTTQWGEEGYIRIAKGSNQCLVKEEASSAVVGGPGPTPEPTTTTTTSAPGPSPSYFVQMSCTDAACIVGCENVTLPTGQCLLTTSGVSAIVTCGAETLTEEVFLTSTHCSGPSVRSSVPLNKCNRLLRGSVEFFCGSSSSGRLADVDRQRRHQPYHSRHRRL
SMILES,K ass [1] [M⁻¹ s⁻¹],Survival time (Trypanosoma cruzi [2]),Survival time (Trypanosoma cruzi [3])
O=C(N[C@@H](Cc1ccccc1)C(=O)N[C@H](/C=C/S(=O)(=O)Cc1ccccc1)CCc1ccccc1)OCc1ccccc1,1.4e+06,6 days,
O=C(N[C@H](/C=C/S(=O)(=O)c1ccccc1)CCc1ccccc1)[C@H](Cc1ccccc1)NC(=O)N1CCOCC1,181000,>24 days,
O=C(N[C@@H](Cc1ccccc1)C(=O)N[C@H](/C=C/S(=O)(=O)Oc1ccccc1)CCc1ccccc1)OCc1ccccc1,1.68e+07,,Toxic
O=C(N[C@H](/C=C/S(=O)(=O)Oc1ccccc1)CCc1ccccc1)[C@H](Cc1ccccc1)NC(=O)N1CCOCC1,1.02e+07,Toxic,
CN1CCN(C(=O)N[C@@H](Cc2ccccc2)C(=O)N[C@H](/C=C/S(=O)(=O)Oc2ccccc2)CCc2ccccc2)CC1,720000,9 days,
CN1CCN(C(=O)N[C@@H](Cc2ccccc2)C(=O)N[C@H](/C=C/S(=O)(=O)c2ccccc2)CCc2ccccc2)CC1 [K-777],420000,>24 days,
O=C(N[C@H](/C=C/S(=O)(=O)NOCc1ccccc1)CCc1ccccc1)[C@H](Cc1ccccc1)NC(=O)N1CCOCC1,2.27e+06,>24 days,
O=C(N[C@@H](Cc1ccccc1)C(=O)N[C@H](/C=C/S(=O)(=O)Nc1ccccc1)CCc1ccccc1)OCc1ccccc1,242000,6 days,
O=C(N[C@H](/C=C/S(=O)(=O)Nc1ccccc1)CCc1ccccc1)[C@H](Cc1ccccc1)NC(=O)N1CCOCC1,4.92e+06,9 days,
CN1CCN(C(=O)N[C@@H](Cc2ccccc2)C(=O)N[C@H](/C=C/S(=O)(=O)Nc2ccccc2)CCc2ccccc2)CC1,1.26e+06,9 days,
O=C(N[C@H](/C=C/S(=O)(=O)Cc1ccccc1)CCc1ccccc1)[C@H](Cc1ccccc1)NC(=O)N1CCOCC1,1.67e+06,20 days,
CN1CCN(C(=O)N[C@@H](Cc2ccccc2)C(=O)N[C@H](/C=C/S(=O)(=O)NOCc2ccccc2)CCc2ccccc2)CC1,6.48e+06,>24 days,
CN1CCN(C(=O)N[C@@H](Cc2ccccc2)C(=O)N[C@H](/C=C/S(=O)(=O)Cc2ccccc2)CCc2ccccc2)CC1,3.85e+06,13 days,
